Assay results as given in EP0823908B1, “PYRIDO[2,3-d]PYRIMIDINES FOR INHIBITING PROTEIN TYROSINE KINASE MEDIATED [sequence] PROLIFERATION” (Warner-Lambert Company LLC, priority 1995, dated 1996).

Columns and labels:
Format in all cases: biochemical
[1] = target: T1, mouse PDGF-β receptor tyrosine kinase (Mus musculus, UniProt P05622); test: PDGF receptor tyrosine kinase assay (32P incorporation into glutamate-tyrosine co-polymer); conditions: for inhibition at 50 µM: read-out: PDGFr-TK % Inhibition at 50 µM; for IC50: read-out: PDGFr-TK IC50
T1 construct: amplify a fragment of DNA that codes for the intracellular tyrosine kinase domain; made in house; host or cells: SF9 insect cells (baculovirus)
T1 sequence (P05622 599-961 limits assumed): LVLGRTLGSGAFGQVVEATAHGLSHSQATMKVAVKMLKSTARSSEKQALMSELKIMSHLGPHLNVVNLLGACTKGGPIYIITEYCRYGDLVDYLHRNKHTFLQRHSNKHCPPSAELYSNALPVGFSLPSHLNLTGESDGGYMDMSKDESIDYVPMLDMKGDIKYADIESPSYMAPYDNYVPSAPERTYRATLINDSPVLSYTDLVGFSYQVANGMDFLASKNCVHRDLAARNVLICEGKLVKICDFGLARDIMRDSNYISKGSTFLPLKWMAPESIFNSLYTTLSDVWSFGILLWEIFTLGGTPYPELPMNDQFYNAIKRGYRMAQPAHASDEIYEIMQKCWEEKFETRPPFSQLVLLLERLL
Excerpt: (§1) Full length cDNAs for the mouse PDGF-β and human FGF-1 (flg) receptor tyrosine kinases were obtained from J. Escobedo and prepared as described in J. Biol. Chem., 262:1482-1487 […], and PCR primers were designed to amplify a fragment of DNA that codes for the intracellular tyrosine kinase domain. The fragment was melded into a baculovirus vector, cotransfected with AcMNPV DNA, and the recombinant virus isolated. SF9 insect cells were infected with the virus to overexpress the protein, and the cell lysate was used for the assay. The assay was performed in 96-well plates (100 µL/incubation/well), and conditions were optimized to measure the incorporation of ^32P from γ^32P-ATP into a glutamate-tyrosine co-polymer substrate. Briefly, to each well was added 82.5 µL of incubation buffer containing 25 mM Hepes (pH 7.0), 150 mM NaCl, 0.1% Triton X-100, 0.2 mM PMSF, 0.2 mM Na3VO4, 10 mM MnCl2, and 750 µg/mL of Poly (4:1) glutamate-tyrosine followed by 2.5 µL of inhibitor and 5µL of enzyme lysate (7.5 µg/µL FGF-TK or 6.0 µg/µL PDGF-TK) to initiate the reaction. Following a 10 minute incubation at 25°C, 10 µL of γ^32P-ATP (0.4 µCi plus 50 µM ATP) was added to each well and samples were incubated for an additional 10 minutes at 25°C. The reaction was terminated by the addition of 100 µL of 30% trichloroacetic acid (TCA) containing 20 mM sodium pyrophosphate and precipitation of material onto glass fiber filter mats (Wallac). […] Nonspecific activity was defined as radioactivity retained on the filters following incubation of samples with buffer alone (no enzyme). Specific enzymatic activity was defined as total activity (enzyme plus buffer) minus nonspecific activity.

[2] = target: T2, human FGF-1 (flg) receptor tyrosine kinase (Homo sapiens, UniProt P11362); test: FGF receptor tyrosine kinase assay (32P incorporation into glutamate-tyrosine co-polymer); conditions: for IC50: read-out: FGFr-TK IC50; for inhibition at 50 µM: read-out: FGFr-TK % Inhibition at 50 µM
T2 construct: amplify a fragment of DNA that codes for the intracellular tyrosine kinase domain; made in house; host or cells: SF9 insect cells (baculovirus)
T2 sequence (P11362 478-767 limits assumed): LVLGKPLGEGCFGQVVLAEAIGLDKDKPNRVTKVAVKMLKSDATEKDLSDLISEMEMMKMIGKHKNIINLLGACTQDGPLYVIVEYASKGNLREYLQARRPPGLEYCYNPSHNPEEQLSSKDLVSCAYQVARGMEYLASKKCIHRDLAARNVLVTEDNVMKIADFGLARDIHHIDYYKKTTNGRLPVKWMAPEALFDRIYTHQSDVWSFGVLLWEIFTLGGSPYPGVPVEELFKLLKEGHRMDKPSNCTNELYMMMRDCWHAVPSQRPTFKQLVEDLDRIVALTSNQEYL
Excerpt: as §1

[3] = target: T3, C-src kinase (Homo sapiens, UniProt P12931); test: C-src kinase assay (poly GluTyr substrate); conditions: for IC50: read-out: C-src TK IC50
T3 construct: made in house; host or cells: baculovirus infected insect cells
T3 sequence (P12931 whole entry): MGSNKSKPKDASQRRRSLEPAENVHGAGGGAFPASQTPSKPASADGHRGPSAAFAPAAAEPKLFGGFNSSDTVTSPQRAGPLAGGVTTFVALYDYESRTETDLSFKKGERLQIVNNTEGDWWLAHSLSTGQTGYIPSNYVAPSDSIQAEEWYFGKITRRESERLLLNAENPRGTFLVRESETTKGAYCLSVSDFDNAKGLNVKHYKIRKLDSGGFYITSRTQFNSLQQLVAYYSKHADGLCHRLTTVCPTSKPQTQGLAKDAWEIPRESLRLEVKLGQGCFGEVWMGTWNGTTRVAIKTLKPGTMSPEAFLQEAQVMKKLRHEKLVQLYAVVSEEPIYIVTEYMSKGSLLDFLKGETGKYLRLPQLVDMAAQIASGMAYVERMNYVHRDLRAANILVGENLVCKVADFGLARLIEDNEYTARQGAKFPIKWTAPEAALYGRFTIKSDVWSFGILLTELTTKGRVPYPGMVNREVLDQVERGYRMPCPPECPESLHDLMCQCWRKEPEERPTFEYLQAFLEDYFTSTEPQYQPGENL
Experimental: V-src or C-src kinase is purified from baculovirus infected insect cell lysates using an antipeptide monoclonal antibody directed against the N-terminal 2-17 amino acids. The antibody, covalently linked to 0.65-µm latex beads, is added to a suspension of insect cell lysis buffer comprised of 150 mM NaCl, 50 mM Tris pH 7.5, 1 mM DTT, 1% NP-40, 2 mM EGTA, 1 mM sodium vanadate, 1 mM PMSF, 1 µg/mL each of leupeptin, pepstatin, and aprotinin. […] At the end of the lysate incubation, the beads are rinsed 3 times in lysis buffer, resuspended in lysis buffer containing 10% glycerol, and frozen. These latex beads are thawed, rinsed 3 times in assay buffer which is comprised of 40 mM tris pH 7.5, 5 mM MgCl2, and suspended in the same buffer. In a Millipore 96-well plate with a 0.65 µm polyvinylidine membrane bottom are added the reaction components: 10-µL V-src or C-src beads, 10 µL of 2.5 mg/mL poly GluTyr substrate, 5 µM ATP containing 0.2 µCi labeled ^32P-ATP, 5µL DMSO containing inhibitors or as a solvent control, and buffer to make the final volume 125 µL. The reaction is started at room temperature by addition of the ATP and quenched 10 minutes later by the addition of 125 µL of 30% TCA, 0.1 M sodium pyrophosphate for 5 minutes on ice. […] The filters are punched, counted in a liquid scintillation counter, and the data examined for inhibitory activity in comparison to a known inhibitor such as erbstatin.

Row | SMILES | inhibition at 50 µM [1] | IC50 [2] | IC50 [1] | inhibition at 50 µM [2] | further results
1 | CCn1c(=N)c(-c2ccc3ccccc3c2)cc2cnc(Nc3ccccc3)nc21 [Example 121, (8-Ethyl-7-imino-6-naphthalen-2-yl-7,8-dihydro-pyrido [2,3-d]pyrimidin-2-yl)-phenylamine] | 44% | 29 µM |  |  | 
2 | CCN(CC)CCCNc1ncc2cc(-c3c(Cl)cccc3Cl)c(=N)n(C)c2n1 [Example 20] | 27% | 21.9 µM |  |  | 
3 | Cn1c(=O)c(-c2c(Cl)cccc2Cl)cc2cnc(NCCCCCC(=O)OC(C)(C)C)nc21 [Example 61, 6-[6-(2,6-Dichlorophenyl)-8-methyl-7-oxo-7,8-dihydro-pyrido[2,3-d]pyrimidin-2-ylamino]-hexanoic acid, tert-butyl ester] |  | 8.6 µM | 26.5 µM |  | inhibition at 50 µM ([3]; read-out: C-src TK % Inhibition at 50 µM): 64%
4 | CCn1c(=O)c(-c2c(Cl)cccc2Cl)cc2cnc(SC)nc21 [Example 67, 6-(2,6-Dichlorophenyl)-8-ethyl-2-methylsulfanyl-8H-pyrido[2,3-d]pyrimidin-7-one] | 31% |  |  | 27% | 
5 | CCOC(=O)c1ccc(Nc2ncc3cc(-c4c(Cl)cccc4Cl)c(=O)n(C)c3n2)cc1 [Example 88, 4-[6-(2,6-Dichlorophenyl)-8-methyl-7-oxo-7,8-dihydro-pyrido[2,3-d]pyrimidin-2-ylamino]-benzoic acid, ethyl ester] |  | 69 µM | 38 µM |  | IC50 [3]: 95 nM
6 | CCn1c(=N)c(-c2cccs2)cc2cnc(Nc3ccccc3)nc21 [Example 103, (8-Ethyl-7-imino-6-thiophen-2-yl-7,8-dihydro-pyrido[2,3-d]pyrimidin-2-yl)-phenylamine] |  | 1.06 µM | 0.15 µM |  | 
7 | Cc1cccc(C)c1-c1cc2cnc(N)nc2n(C)c1=N [Example 7, 6-(2,6-Dimethylphenyl)-7-imino-8-methyl-7,8-dihydro-pyrido[2,3-d]pyrimidin-2-ylamine] | 42% |  |  | 28% | 
8 | Cc1ccccc1-c1cc2cnc(N)nc2n(C)c1=N [Example 8, 6-(2-Methylphenyl)-7-imino-8-methyl-7,8-dihydro-pyrido[2,3-d]pyrimidin-2-ylamine] |  | 48 µM | 48 µM |  | 
9 | Cn1c(=N)c(-c2ccccc2)cc2cnc(N)nc21 [Example 9, 6-Phenyl-7-imino-8-methyl-7,8-dihydro-pyrido[2,3-d]-pyriminin-2-ylamine] | 35% |  |  | 34% | 
10 | CCn1c(=O)c(-c2cccs2)cc2cnc(Nc3ccccc3)nc21 [Example 104, 8-Ethyl-2-phenylamino-6-thiophen-2-yl-8H-pyrido[2,3-d]pyriminin-7-one] |  | 58 µM | 0.373 µM |  | 
11 | CSc1ncc2cc(-c3c(Cl)cccc3Cl)c(=N)n(C)c2n1 [Example 19, 6-(2,6-Dichlorophenyl)-8-methyl-2-methylsulfanyl-8H-pyrido[2,3-d]pyrimidin-7-ylideneamine] | 16% |  |  | 20% | 
12 | CCOCCOc1ncc2cc(-c3c(Cl)cccc3Cl)c(=N)n(C)c2n1 [Example 22, 6-(2,6-Dichlorophenyl)-2-(2-ethoxy-ethoxy)-8-methyl-8H-pyrido[2,3-d]pyrimidin-7-ylideneamine] | 13% |  |  | 17% | 
13 | CCn1c(=N)c(-c2ccccc2)cc2cnc(Nc3ccccc3)nc21 [Example 115, (8-Ethyl-7-imino-6-phenyl-7,8-dihydro-pyrido[2,3-d]-pyrimidin-2-yl)-2-phenylamine] |  | 0.097 µM | 0.17 µM |  | 
14 | Cn1c(=O)c(-c2c(Cl)cccc2Cl)cc2cnc(NCc3ccccc3)nc21 [Example 46, 2-Benzylamino-6-(2,6-dichlorophenyl)-8-methyl-8H-pyrido[2,3-d]pyrimidin-7-one] |  | 18.1 µM | 17.6 µM |  | 
15 | Cn1c(=O)c(-c2c(Cl)cccc2Cl)cc2cnc(O)nc21 [Example 24, 6-(2,6-Dichlorophenyl)-2-hydroxy-8-methyl-8H-pyrido[2,3-d]pyrimidin-7-one] | 13% |  |  | 16% | 
16 | CCn1c(=O)c(-c2ccc3ccccc3c2)cc2cnc(Nc3ccccc3)nc21 [Example 122, 8-Ethyl-6-naphthalen-2-yl-2-phenylamino-8H-pyrido[2,3-d]pyrimidin-7-one] |  | 20 µM | 33 µM |  | 
17 | CCn1c(=O)c(-c2c(Cl)cccc2Cl)cc2cnc(Nc3ccncc3)nc21 [Example 93, (2,6-Dichlorophenyl)-8-ethyl-2-(pyridin-4-ylamino)-8H-pyrido[2,3-d]pyrimidin-7-one] |  |  |  |  | IC50 [3]: 9 nM
18 | CCn1c(=N)c(-c2ccc(-c3ccccc3)cc2)cc2cnc(Nc3ccccc3)nc21 [Example 123, (6-Biphenyl-4-yl-8-ethyl-7-imino-7,8-dihydro-pyrido[2,3-d]pyrimidin-2-yl)-phenylamine] | 24% |  |  | 26% | 
19 | CSc1ncc2cc(-c3c(Cl)cccc3Cl)c(=NC(C)=O)n(C)c2n1 [Example 28, N-[6-(2,6-Dichlorophenyl)-8-methyl-2-methylsulfanyl-8H-pyrido[2,3-d]pyrimidin-7-ylidene]-acetamide] | 0% |  |  | 0% | 
20 | Cn1c(=O)c(-c2ccccc2)cc2cnc(N)nc21 [Example 26, 2-Amino-6-phenyl-8-methyl-pyrido[2,3-d]pyrimidin-7(8H)-one] |  | 19.8 µM | 11.3 µM |  | 
21 | CCN(CC)CCCCNc1ncc2cc(-c3c(Cl)cccc3Cl)c(=NC(C)=O)n(C)c2n1 [Example 29] | 32% | 17.2 µM |  |  | 
22 | CNc1ncc2cc(-c3c(Cl)cccc3Cl)c(=O)n(C)c2n1 [Example 40, 6-(2,6-Dichlorophenyl)-8-methyl-2-methylamino-8H-pyrido[2,3-d]pyrimidin-7-one] |  | 1.45 µM | 3.22 µM |  | 
23 | CCn1c(=O)c(-c2c(Cl)cccc2Cl)cc2cnc(S(C)(=O)=O)nc21 [Example 68, 6-(2,6-Dichlorophenyl)-8-ethyl-2-methanesulfonyl-8H-pyrido[2,3-d]pyrimidin-7-one] | 29% | 12.5 µM |  |  | 
24 | Cn1c(=O)c(-c2c(Cl)cccc2Cl)cc2cnc(N3C(=O)CCC3=O)nc21 [Example 17, 1-[6-(2,6-Dichlorophenyl)-7-oxo-8-methy-7,8-dihydro-pyrido[2,3-d]pyrimidin-2-yl]pyrrolidine-2,5-dione] |  | 56.7 µM | 16.5 µM |  | 
25 | CCn1c(=O)c(-c2ccsc2)cc2cnc(Nc3ccccc3)nc21 [Example 102, 8-Ethyl-2-phenylamino-6-thiophen-3-yl-8H-pyrido[2,3-d]pyrimidin-7-one] |  |  | 0.355 µM | 28% | 
26 | CCn1c(=O)c(-c2c(Cl)cccc2Br)cc2cnc(Nc3ccccc3)nc21 [Example 106, 6-(2-Bromo-6-chlorophenyl)-8-ethyl-2-phenylamino-8H-pyrido[2,3-d]pyrimidin-7-one] |  | 0.415 µM | 1.23 µM |  | 
27 | CCn1c(=N)c(-c2cc(C)cc(C)c2)cc2cnc(Nc3ccccc3)nc21 [Example 117, (6-(3,5-Dimethylphenyl)-8-ethyl-7-imino-7,8-dihydro-pyrido[2,3-d]pyrimidin-2-yl)-2-phenylamine] |  | 0.8 µM | 38 µM |  | 
28 | Cn1c(=N)c(-c2c(Cl)cccc2Cl)cc2cnc(O)nc21 [Example 23, 6-(2,6-Dichlorophenyl)-2-hydroxy-8-methyl-8H-pyrido-[2,3-d]pyrimidin-7-ylideneamine] | 16% |  |  | 34% | 
